Assay results from patent US20230115945A1, “AMINOPYRIMIDINE COMPOUNDS” (TYRA BIOSCIENCES, INC., priority 2019, published 2023).

Tests used:
FGFR3 = target: T1, FGFR3 (Homo sapiens, UniProt P22607); test: Kinase binding assay (Kd), FGFR3; conditions: 11-point 3-fold dilution, qPCR readout
T1 construct: made in house; host or cells: E. coli host derived from BL21, infected with T7 phage
In short: (§1)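 Competition binding, phage-tagged kinase vs. bead-bound ligand; 11-pt 3-fold cpd series, 0.9% DMSO final; 1 h RT shaking; eluate kinase by qPCR; Kd via Hill fit (slope −1, Levenberg–Marquardt).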

[1] = test system: KG-1 cells (Acute Myeloid Leukemia, FGFR1OP2-FGFR1 fusion); test: Cancer cell line cell viability assay, KG-1; format: cell-based; conditions: Homo sapiens, 72 hours, Cell Titer-Glo 2.0, read-out: Cancer Cell Viability Assays KG1 (IC50 nM)
Excerpt: To detect the change of intracellular ATP by Cell Titer-Glo® and to evaluate the inhibitory effect of the compounds on cancer cell lines by determining the in vitro IC50 value of the compounds.
Cell Titer-Glo® 2.0 Luminescent cell viability assay reagent was purchased from Promega (Madison, Wis.). RT112/84, SNU-16, and KG-1 cell lines were purchased from American Type Culture Collection (Manassas, Va.). UM-UC-14 cell line was purchased from Sigma (St. Louis, Mo.). RT112/84, UM-UC-14, SNU-16, and KG-1 cells were cultured in RPMI1640 media supplemented with 10% fetal bovine serum. Cultures were maintained at 37° C. in a humidified atmosphere of 5% CO2 and 95% air.
(§2) Cell Viability Assay Procedure: Cells were plated in 96-well clear bottom/white plates (Corning #3903) at 10,000 cells/well in 100 μl of media, incubated overnight. The next day, test compound DMSO stock solutions were made at 10 mM and 2 μM final concentration. Compounds were then added to cells in a 9-dose, 10-fold dilution series starting at 30 μM with an HP 300e Digital Dispenser (each dose was applied in triplicate). DMSO was backfilled to each well up to 301 nL total volume of test compound+DMSO, and a total of 301 nL DMSO was added to a control/no test compound well in triplicate. The cells in cell culture plates were incubated with the compounds at 37° C. and 5% CO2 for 72 hours. Then 50 μl of Cell Titer Glo 2.0 reagent was added to each well of the cell culture plates. The contents were covered from light and mixed on an orbital shaker at room temperature for 10 min. Luminescence was recorded by a Synergy H1 Microplate Reader (Biotek, Winooski, Vt.). Cells were assessed as a percentage of DMSO only treated control cells. Curves were plotted and IC50 values were calculated using the GraphPad Prism 8 program based on a sigmoidal dose-response equation (4 parameter).

FGFR3 (V555M) = target: T2, FGFR3 (V555M) (Homo sapiens, UniProt P22607, V555M); test: Kinase binding assay (Kd), FGFR3 (V555M); conditions: 11-point 3-fold dilution, qPCR readout
T2 construct: made in house; host or cells: E. coli host derived from BL21, infected with T7 phage
In short: as §1

FGFR1-BCR Ba/F3 cells = target: T3, FGFR1-BCR Ba/F3 cells (Homo sapiens, UniProt P11362); test: Ba/F3 cell viability assay, FGFR1; format: cell-based; conditions: FGFR1-BCR Ba/F3, 48 hours, Cell Titer-Glo 2.0; read-out: Ba/F3 Cells FGFR1 (IC50 nM)
T3 construct: Ba/F3 FGFR1; FGFR1-BCR; Advanced Cellular Dynamics, (Seattle, WA); fused on or other part: P11274 (Breakpoint cluster region protein)
Excerpt: Experimental Purpose: Recombinant kinase fusions are transduced into parental Ba/F3, which becomes dependent upon this constitutive kinase activity for IL3-independent survival. Inhibition of kinase activity leads to cell death, which is monitored using CellTiter-Glo® 2.0 (Promega) which measures intracellular ATP concentration that in turn serves as a marker for viability. FGFR1-BCR Ba/F3 and FGFR3-BAIAP2L1 Ba/F3 were obtained from Advanced Cellular Dynamics (Seattle, Wash.)
Cell Viability Assay Procedure: Cell Titer-Glo® 2.0 Luminescent cell viability assay reagent was purchased from Promega (Madison, Wis.). FGFR1-BCR Ba/F3 and FGFR3-BAIAP2L1 Ba/F3 cells were cultured in RPMI1640 media supplemented with 10% fetal bovine serum. Cultures were maintained at 37° C. in a humidified atmosphere of 5% CO2 and 95% air.
as §2, with “Cells” for “Cell Viability Assay Procedure: Cells”, “48” for “72”

T3 sequence (P11362 whole entry, change not shown, the tested form may be a part): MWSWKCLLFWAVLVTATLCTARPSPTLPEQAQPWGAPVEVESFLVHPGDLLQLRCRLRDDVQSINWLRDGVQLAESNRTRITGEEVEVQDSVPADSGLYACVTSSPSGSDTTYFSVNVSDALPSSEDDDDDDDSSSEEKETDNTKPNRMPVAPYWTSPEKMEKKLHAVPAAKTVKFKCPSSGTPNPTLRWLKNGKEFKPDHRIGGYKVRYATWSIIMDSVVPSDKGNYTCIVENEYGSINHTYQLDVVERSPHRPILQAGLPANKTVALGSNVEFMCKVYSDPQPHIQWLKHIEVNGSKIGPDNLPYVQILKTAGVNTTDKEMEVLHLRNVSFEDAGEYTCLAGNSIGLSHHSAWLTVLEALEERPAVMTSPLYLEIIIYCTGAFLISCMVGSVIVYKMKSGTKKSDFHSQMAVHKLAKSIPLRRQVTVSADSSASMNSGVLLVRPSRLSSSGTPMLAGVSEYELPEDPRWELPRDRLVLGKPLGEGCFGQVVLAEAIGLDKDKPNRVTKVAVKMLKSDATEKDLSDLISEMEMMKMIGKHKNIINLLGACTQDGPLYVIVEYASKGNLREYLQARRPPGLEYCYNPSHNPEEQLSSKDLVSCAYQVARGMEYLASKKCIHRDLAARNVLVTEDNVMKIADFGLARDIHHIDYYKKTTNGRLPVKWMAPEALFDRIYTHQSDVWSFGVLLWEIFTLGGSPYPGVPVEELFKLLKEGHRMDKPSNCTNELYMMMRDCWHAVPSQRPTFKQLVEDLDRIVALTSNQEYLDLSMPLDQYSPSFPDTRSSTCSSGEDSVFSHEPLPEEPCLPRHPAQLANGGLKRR
T2 sequence (P22607 23-806 V555M): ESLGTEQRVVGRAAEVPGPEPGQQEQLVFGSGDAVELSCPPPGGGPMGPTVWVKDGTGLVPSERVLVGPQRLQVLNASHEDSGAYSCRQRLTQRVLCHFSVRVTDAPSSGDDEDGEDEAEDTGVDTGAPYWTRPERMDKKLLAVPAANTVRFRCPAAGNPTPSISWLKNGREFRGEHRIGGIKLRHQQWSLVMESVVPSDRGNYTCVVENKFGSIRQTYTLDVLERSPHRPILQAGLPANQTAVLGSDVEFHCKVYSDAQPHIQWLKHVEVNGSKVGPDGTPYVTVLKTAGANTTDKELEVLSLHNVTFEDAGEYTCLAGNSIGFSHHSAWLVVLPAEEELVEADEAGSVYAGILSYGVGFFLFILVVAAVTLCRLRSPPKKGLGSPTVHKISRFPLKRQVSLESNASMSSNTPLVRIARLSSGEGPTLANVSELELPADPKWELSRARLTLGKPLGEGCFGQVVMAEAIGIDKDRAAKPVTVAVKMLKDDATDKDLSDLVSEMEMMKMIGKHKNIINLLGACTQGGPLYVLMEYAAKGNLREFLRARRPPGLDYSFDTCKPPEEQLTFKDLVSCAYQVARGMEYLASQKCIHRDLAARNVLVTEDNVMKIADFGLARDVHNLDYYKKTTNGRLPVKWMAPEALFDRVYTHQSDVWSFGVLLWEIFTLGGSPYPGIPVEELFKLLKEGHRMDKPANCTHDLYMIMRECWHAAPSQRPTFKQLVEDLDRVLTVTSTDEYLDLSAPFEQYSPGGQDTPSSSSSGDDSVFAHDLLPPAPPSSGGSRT
T1 sequence (P22607 23-806): as the sequence (P22607 23-806 V555M) above, with M533V counted along it

SMILES | Kd (FGFR3) [nM] | IC50 [1] [nM] | Kd (FGFR3 (V555M)) [nM] | GI50 (FGFR1-BCR Ba/F3 cells) [nM]
C=CC(=O)Nc1ccc2c(c1)c(C)cn2-c1nc(Nc2ccc(N=S(C)(C)=O)cc2)ncc1Cl [Example 61, N-[1-[5-Chloro-2-[4-[[dimethyl(oxo)-λ^6-sulfanylidene]amino]anilino]pyrimidin-4-yl]-3-methyl-indol-5-yl]prop-2-enamide] | 6 | 6 | 2 | 2
C=CC(=O)Nc1ccc2c(c1)c(C)cn2-c1nc(Nc2ccc(N=S(C)(C)=O)c(OC)c2)ncc1Cl [Example 64, N-[1-[5-Chloro-2-[4-[[dimethyl(oxo)-λ^6-sulfanylidene]amino]-3-methoxy-anilino]pyrimidin-4-yl]-3-methyl-indol-5-yl]prop-2-enamide] | 4 | 1 | 1 | 3
C=CC(=O)Nc1ccc2c(ccn2-c2nc(Nc3ccc(N=S(C)(C)=O)cc3)ncc2Cl)c1 [Example 66, N-[1-[5-chloro-2-[4-[[dimethyl(oxo)-λ^6-sulfanylidene]amino]anilino]-pyrimidin-4-yl]indol-5-yl]prop-2-enamide] | 21 | 20 | 5.3 | 6
C=CC(=O)Nc1ccc2c(ccn2-c2nc(Nc3ccc(S(C)(=N)=O)cc3)ncc2Cl)c1 (centres unmarked) [Example 70, N-[1-[5-Chloro-2-[4-(methylsulfonimidoyl)anilino]-pyrimidin-4-yl]indol-5-yl]prop-2-enamide] | 21 | 9 | 9.2 | 8
C=CC(=O)Nc1ccc2c(-c3nc(Nc4ccc(N=S(C)(C)=O)cc4)ncc3Cl)cn(C)c2c1 [Example 92, N-[3-[5-chloro-2-[4-[[dimethyl(oxo)-λ^6-sulfanylidene]amino]anilino]pyrimidin-4-yl]-1-methyl-indol-6-yl]prop-2-enamide] | 12 | 5 | 3 | 1

Continued, in another order:

Kd (FGFR3) [nM] | IC50 [1] [nM] | Kd (FGFR3 (V555M)) [nM] | SMILES | GI50 (FGFR1-BCR Ba/F3 cells) [nM]
3.5 | 4 | 1.7 | C=CC(=O)Nc1ccc2c(c1)c(C)cn2-c1nc(Nc2ccc(N=S(C)(C)=O)c(F)c2)ncc1Cl [Example 60, N-[1-[5-Chloro-2-[4-[[dimethyl(oxo)-λ^6-sulfanylidene]amino]-3-fluoro-anilino]pyrimidin-4-yl]-3-methyl-indol-5-yl]prop-2-enamide] | 2
20 | 17 | 11 | C=CC(=O)Nc1ccc2c(c1)c(C)cn2-c1nc(Nc2ccc(N=S(C)(C)=O)c(F)c2)ncc1C#N [Example 62, N-[1-[5-Cyano-2-[4-[[dimethyl(oxo)-λ^6-sulfanylidene]amino]-3-fluoro-anilino]pyrimidin-4-yl]-3-methyl-indol-5-yl]prop-2-enamide] | 9
3 | 1 | 1 | C=CC(=O)Nc1ccc2c(c1)c(C)cn2-c1nc(Nc2ccc(N=S(C)(C)=O)c(F)c2)ncc1C [Example 63, N-[1-[2-[4-[[dimethyl(oxo)-λ^6-sulfanylidene]amino]-3-fluoro-anilino]-5-methyl-pyrimidin-4-yl]-3-methyl-indol-5-yl]prop-2-enamide] | 1
